# From patent publication US9540389B2, “Antimicrobial potentiators” (priority 2013, dated 2017)
# Experiments:
# [1] = test system: Escherichia coli AB1157; assay: microbe, parasite or virus in culture
# [2] = test system: Escherichia coli ATCC 25922; assay: MIC assay (microbroth dilution) ± 25 μM EPI; type: cell-based; settings: E. coli ATCC 25922
# Excerpt: (§1) • Strains and Reagents. The following strains were obtained from the Keio collection (Baba, et al.: Construction of Escherichia coli K-12 in-frame, single-gene knockout mutants: the Keio collection. In Mol Syst Biol, vol. 2, pp. 2006 0008, (2006)): JW0451 (ΔacrB::kan), JW5503 (ΔtolC::kan), JW3234 (ΔacrF::kan), JW2661 (ΔemrB::kan), JW0863 (ΔmacB::kan). The deletion mutations in each of these strains were transferred to AB1157 using P1 phage transduction (see Table 1). The construction of the E. coli cell-based reporter strain (SOS-XXX) that was used for high throughput screening is described in detail in the supplementary information. […] Irgasan was a generous gift from Ciba Speciality Chemicals, Inc. (High Point, N.C.). Hoechst 33342 (H33342) was purchased from Molecular Probes (Eugene, Oreg.). […] Luria Broth (Miller) and agar were purchased as prepared dehydrated media from Becton Dickenson (Franklin Lakes, N.J.). The compound libraries used in high-throughput screens were purchased from Chembridge (San Diego, Calif.), ChemDiv (San Diego, Calif.), and TimTec (Newark, Del.). MBX2319 was synthesized by Microbiotix, Inc. • Antibacterial Activity Assays. The minimal inhibitory concentration (MIC) of antibacterial agents and biocides were determined using the microbroth dilution method essentially as described in the CLSI protocol M7-A7 (CLSI: Method for dilution antimicrobial susceptibility testing for bacteria that grow aerobically; Approved standard-document M7-A7. In Clinical and Laboratory Standards Institute document M7-A7, Clinical and Laboratory Standards Institute, Wayne, Pa., (2006)), with the following exceptions. LB media was used instead of MHB. […] The final concentration of DMSO in each assay was 2%. […] MIC assays were performed in triplicate and the geometric mean was calculated. Checkerboard MIC assays using an EPI and an antibacterial agent were performed essentially as described (Pillai, et al.: Antimicrobial Combinations. In Antibiotics in Laboratory Medicine, ed. by V. Lorian, pp. 365-440, Lippincott Williams & Wilkins, Philadelphia, Pa., (2005)), with the same modifications used for the MIC assays described above. • Time-Kill Assays. Killing curve assays were performed essentially as described (Pillai, et al.: Antimicrobial Combinations. In Antibiotics in Laboratory Medicine, ed. by V. Lorian, pp. 365-440, Lippincott Williams & Wilkins, Philadelphia, Pa., (2005)). Exponential bacterial cultures grown in LB were diluted to a cell density of ˜1×10^7 in LB followed by addition of CIP and/or an EPI. Viability was monitored over 2-4 hours by making serial dilutions in saline and spotting 5 μl of each dilution onto the surface of an LB agar plate in triplicate. Colonies were counted after the plates were incubated at 37° C. for 16-18 hr, colony forming units (CFU) per ml were calculated, and the average and standard deviation for the three replicates was determined. For treatments that decreased CFU/ml below the limit of detection for the spot plating method, the 100 μl samples were diluted into 5 ml LB top agar, were poured onto LB agar plates, and incubated for 18 hr at 37° C. To calculate the fraction of the control for each sample, the average CFU/ml values for treated samples were divided by those from the same sample at 0 h (time=0). Each experiment was repeated at least three times, and a representative experiment is shown. • H33342 Accumulation Assay. The rate of accumulation of the fluorescent dye Hoechst 33342 (H33342), which is a substrate of a wide variety of bacterial efflux pumps (van den Berg van Saparoea, et al., Biochemistry, vol. 44, pp. 16931-16938, (2005)), can be used to estimate the activity of the major efflux pumps in E. coli and many other bacterial species. The H33342 accumulation assay was used to evaluate the effect of EPIs on the activity of the AcrAB-TolC efflux pump in several bacterial species essentially as described (Coldham, et al., J Antimicrob Chemother, vol. 65, pp. 1655-1663, (2010)). […]
# [3] = test system: Klebsiella pneumoniae ATCC 700603; assay: MIC assay (microbroth dilution) ± 25 μM EPI; type: cell-based
# Excerpt: as §1
# [4] = test system: Salmonella enterica ATCC 14028; assay: MIC assay (microbroth dilution) ± 25 μM EPI; type: cell-based
# Excerpt: as §1
# [5] = test system: Escherichia coli 331; assay: MIC assay (microbroth dilution) ± 25 μM EPI; type: cell-based; settings: E. coli 331
# Excerpt: as §1
# [6] = test system: Shigella flexneri ATCC 12022; assay: MIC assay (microbroth dilution) ± 25 μM EPI; type: cell-based
# Excerpt: as §1
# [7] = test system: Escherichia coli AB1157; assay: MIC assay (microbroth dilution) ± 25 μM EPI; type: cell-based; settings: E. coli AB1157 (WT); + 25 μM MBX2319; geometric mean
# Excerpt: as §1
# [8] = test system: Enterobacter aerogenes ATCC 13048; assay: MIC assay (microbroth dilution) ± 25 μM EPI; type: cell-based
# Excerpt: as §1
# [9] = test system: P. aeruginosa ATCC 27853; assay: MIC assay (microbroth dilution) ± 25 μM EPI; type: cell-based, Pseudomonas aeruginosa
# Excerpt: as §1
# [10] = test system: Escherichia coli AB1157 (WT); assay: Checkerboard MIC assay (antibacterial agent + MBX2319); type: cell-based; settings: WT
# Excerpt: as §1
# [11] = test system: Escherichia coli AB1157 ΔtolC; assay: as above; type: cell-based
# Excerpt: as §1
# [12] = test system: Escherichia coli AB1157 ΔacrF; assay: as above; type: cell-based
# Excerpt: as §1
# [13] = test system: Escherichia coli AB1157 ΔacrB; assay: as above; type: cell-based
# Excerpt: as §1
# [14] = Escherichia coli, read-out: MIC (μg/ml) with MBX2319 at concn (μM) of: 0
smiles,measurement,setting,value
C[C@H]1COc2c(N3CCN(C)CC3)c(F)cc3c(=O)c(C(=O)O)cn1c23 [Levofloxacin],MIC,[1],0.06 µg/mL
same,MIC (μg/ml) ± EPI: MBX2319,[2]; + 25 μM MBX2319,0.013 µg/mL
same,MIC (μg/ml) ± EPI: PAβN,[2]; + 25 μM PAβN,0.022 µg/mL
same,MIC (μg/ml) ± EPI: MBX2319,[3]; + 25 μM MBX2319,0.149 µg/mL
same,MIC (μg/ml) ± EPI: PAβN,[3]; + 25 μM PAβN,0.5 µg/mL
same,MIC,"[3]; ATCC700603, no EPI, read-out: MIC (μg/ml) ± EPI: None",0.71 µg/mL
same,MIC (μg/ml) ± EPI: MBX2319,[4]; + 25 μM MBX2319,0.016 µg/mL
same,MIC (μg/ml) ± EPI: PAβN,[4]; + 25 μM PAβN,0.044 µg/mL
same,MIC,"[4]; ATCC14028, no EPI, read-out: MIC (μg/ml) ± EPI: None",0.062 µg/mL
same,MIC (μg/ml) ± EPI: MBX2319,[5]; + 25 μM MBX2319,11.3 µg/mL
same,MIC (μg/ml) ± EPI: PAβN,[5]; + 25 μM PAβN,32 µg/mL
same,MIC,"[5]; Escherichia coli, no EPI, read-out: MIC (μg/ml) ± EPI: None",64 µg/mL
same,MIC (μg/ml) ± EPI: MBX2319,"[6]; Shigella flexneri ATCC 12022, + 25 μM MBX2319",0.016 µg/mL
same,MIC (μg/ml) ± EPI: PAβN,"[6]; Shigella flexneri ATCC 12022, + 25 μM PAβN",0.031 µg/mL
same,MIC,"[6]; Shigella flexneri, ATCC12022, read-out: MIC (μg/ml) ± EPI: None",0.063 µg/mL
same,MICs (μg/ml) ± EPIs: MBX2319,[7],0.016 µg/mL
same,MIC (μg/ml) ± EPI: MBX2319,[8]; + 25 μM MBX2319,0.044 µg/mL
same,MIC (μg/ml) ± EPI: PAβN,[8]; + 25 μM PAβN,0.063 µg/mL
same,MIC,"[8]; Klebsiella aerogenes, ATCC13048, no EPI, read-out: MIC (μg/ml) ± EPI: None",0.177 µg/mL
same,MIC (μg/ml) ± EPI: MBX2319,[9]; + 25 μM MBX2319,1 µg/mL
same,MIC (μg/ml) ± EPI: PAβN,[9]; + 25 μM PAβN,0.5 µg/mL
same,MIC,"[9]; Pseudomonas aeruginosa, ATCC27853, no EPI, read-out: MIC (μg/ml) ± EPI: None",1 µg/mL
same,MIC (μg/ml) with MBX2319 at concn (μM) of: 3.13,[10]; MBX2319 3.13 μM,0.016 µg/mL
same,MIC (μg/ml) with MBX2319 at concn (μM) of: 6.25,[10]; MBX2319 6.25 μM,0.016 µg/mL
same,MIC (μg/ml) with MBX2319 at concn (μM) of: 25,[10]; MBX2319 25 μM,0.016 µg/mL
same,MIC (μg/ml) with MBX2319 at concn (μM) of: 50,[10]; MBX2319 50 μM,0.016 µg/mL
same,MIC (μg/ml) with MBX2319 at concn (μM) of: 12.5,[10]; MBX2319 […],0.016 µg/mL
same,MIC,[11]; [14],0.016 µg/mL
same,MIC (μg/ml) with MBX2319 at concn (μM) of: 1.56,"[11]; ΔtolC, MBX2319 1.56 μM",0.016 µg/mL
same,MIC (μg/ml) with MBX2319 at concn (μM) of: 3.13,"[11]; ΔtolC, MBX2319 3.13 μM",0.016 µg/mL
same,MIC,[12]; [14],0.063 µg/mL
same,MIC (μg/ml) with MBX2319 at concn (μM) of: 6.25,"[12]; ΔacrF, MBX2319 6.25 μM",0.016 µg/mL
same,MIC (μg/ml) with MBX2319 at concn (μM) of: 25,"[12]; ΔacrF, MBX2319 25 μM",0.016 µg/mL
same,MIC (μg/ml) with MBX2319 at concn (μM) of: 50,"[12]; ΔacrF, MBX2319 50 μM",0.016 µg/mL
same,MIC (μg/ml) with MBX2319 at concn (μM) of: 12.5,"[12]; ΔacrF, MBX2319 […]",0.016 µg/mL
same,MIC,[13]; [14],0.016 µg/mL
same,MIC (μg/ml) with MBX2319 at concn (μM) of: 1.56,"[13]; ΔacrB, MBX2319 1.56 μM",0.016 µg/mL
same,MIC (μg/ml) with MBX2319 at concn (μM) of: 3.13,"[13]; ΔacrB, MBX2319 3.13 μM",0.016 µg/mL
same,MIC (μg/ml) with MBX2319 at concn (μM) of: 6.25,"[13]; ΔacrB, MBX2319 6.25 μM",0.016 µg/mL
same,MIC (μg/ml) with MBX2319 at concn (μM) of: 25,"[13]; ΔacrB, MBX2319 25 μM",0.016 µg/mL
same,MIC (μg/ml) with MBX2319 at concn (μM) of: 50,"[13]; ΔacrB, MBX2319 50 μM",0.016 µg/mL
same,MIC (μg/ml) with MBX2319 at concn (μM) of: 12.5,"[13]; ΔacrB, MBX2319 […]",0.016 µg/mL
